Reference: patent US20060234919A1, “Use” (priority 2001, published 2006)

Assays:
[1] = tested on: carrageenan induced edema; assay: carrageenan induced edema of the rat hindpaw (plethysmometer); type: in vivo; settings: for carrageenan induced edema, percentage increase from pre-treatment values in hindpaw volume: 1000 μg/kg s.c., p<0.05
Description: Male Sprague-Dawley rats (260-300 g for s.c. injected and 340-380 g for i.c.v. injected) were used (B&K Universal A B, Sollentuna, Sweden). The animals arrived at least one week before experiments and were housed three-four per cage (except animals provided with i.c.v. cannulas that were housed individually) with free access to food (R36, Ewos, Södertälje, Sweden) and water. The light schedule was a 12/12 h light/dark cycle, and ambient temperature was 20±2° C.
Oxytocin and the oxytocin antagonist (1-deamino-2-D-Tyr-(OEt)-4-Thr-8-Orn-oxytocin) (Ferring, Malmö, Sweden) were dissolved in physiological saline and injected in a volume of 1 ml/kg s.c. in the dorsal neck. Dexamethasone (Decadron®, Merck, Sharp & Dome, USA) was administered intramuscularly (i.m.). Oxytocin given i.c.v. was dissolved in a volume of 5 μl physiological saline and slowly injected over a period of 1 minute through the i.c.v. guide cannula via a 25 G stain-less-steel injection needle connected to a 10 μl Hamilton syringe via a polyethylene tube. Controls received saline in the same amounts.
The model of inflammation used, the carrageenan induced edema, is a commonly used model for studies of inflammation and for testing novel anti-inflammatory drugs (Winter C A, Risley E A, Nuss G W. Carrageenan-induced edema in hind paw of the rat as an assay for anti-inflammatory drugs. Proc Soc Exp Biol Med 1962; 111:544-7). To produce acute inflammation, carrageenan, 2 mg in 0.1 ml saline, was injected s.c. into the plantar region of the rat right hindpaw.
The rats were treated s.c. with oxytocin (1.0, 10, 100 or 1000 μg/kg (n=8 in each group) or saline (n=8+8) immediately before the carrageenan injection. The edema of the right hindpaw was measured (volume in ml) using a plethysmometer (Ugo Basile, type 7150, Florence, Italy) before treatment, half an hour after, one hour after, and then every hour up to 6 or 10 hours after treatment.
The results are presented as means±SD. Statistical analysis was performed by means of a 1-way ANOVA, followed by Fisher's test for post-hoc comparisons. In the analysis of myeloperoxidase accumulation, a Student's t-test was used. P-values of 0.05 or less were regarded as statistically significant.
The rats were treated s.c. with oxytocin (1000 μg/kg) and the oxytocin antagonist (1000 μg/kg) (the antagonist was given 30 minutes before oxytocin) (n=8), the oxytocin antagonist alone (1000 μg/kg) (n=8) or saline (n=8) immediately before the carrageenan injection. Measurements as in Example 1.
The rats were treated i.c.v. with oxytocin (1.0 μg/kg) (n=6) or saline (n=7) immediately before the carrageenan injection. Measurements as in Example 1. The animals were anaesthetised with sodiumpentobarbital (50 mg/kg) (Apoteksbolaget, Sweden) injected intraperitoneally (i.p.). The scull was uncovered, a hole was drilled in the right parietal bone and a guide cannula (21 G) was fixed stereotactically to the scull by means of acrylic dental cement. The coordinates were 1.00 mm posterior and 1.30 mm lateral to the bregma. […] The injection needles (25 G) reached 3.80 mm below the dura mater, with the tip of the needle in the right lateral ventricle. The animals were allowed one week of recovery after the operation. At the end of the experiment, the placement of the guide cannula was checked by injection of 2 μl of toluidine blue.
The rats were treated i.m. with dexamethasone (10 mg/kg) (n=6) or saline (n=6) immediately before the carrageenan injection. The edema of the right hindpaw was measured using the plethysmometer before treatment, and at 2, 4 and 6 hours after treatment.

N-acetyl-LTE4 = assay: OVA-induced N-acetyl-LTE4 synthesis in BN rats (experimental asthma model); type: in vivo, rat; settings: for biliary excretion of N-acetyl-LTE4: 1.0 mg/kg by aerosol
Description: Inbred male BN rats, 7-9 weeks old, were obtained from Harlan Sprague-Dawley. Active sensitisation was performed by subcutaneous injection of 1 ml of saline containing 1 mg of ovalbumin and 3.48 mg of aluminum hydroxide. At the same time, 0.3 ml of Bordetella pertussis vaccine containing heat-killed organisms was given intraperitoneally as an adjuvant. Animals were studied 14-21 days after sensitisation.
Two groups of rats (n=3 for each group) were lightly anaesthetised with xylazine (7 mg/kg) and pentobarbital (30 mg/kg ip) before endotracheal intubation. Each rat then received either saline or 1.0 mg/kg oxytocin (1.0 mg/ml) by aerosol over a period of 5 min using a disposable nebulizer at a flow rate of […] and an output of 0.15 ml/min. Seventeen hours later, the animals were again anaesthetised, and these treatments were repeated. After a further hour, each of the rats was challenged with aerosolised 5% OVA in saline for 5 min.
Before the second treatment with oxytocin or saline, the rats were anaesthetised with urethane (1 g/kg ip, 50% wt/vol). After blind orotracheal intubation (6 cm of PE-240 polyethylene catheter), the common bile duct was exposed and cannulated (15 cm of PE-20 polyethylene tubing) after ligation of duodenal end. The rats were allowed to stabilise for a period of 2 h before challenge with OVA. Bile was collected for 1 h before and for 2 consecutive periods of 1 h after OVA challenge ([…]). All bile samples were collected on ice in 1.5-ml Eppendorf tubes. The bile was kept frozen at […] before analysis.
Bile samples were thawed, and methanol was added to 0.3-ml aliquots to give a final concentration of 80%. […] Ultraviolet absorbance was monitored by a variable wavelength ultraviolet detector. […]
Column fractions were evaporated to dryness in a centrifuge under vacuum, and the residues were dissolved in phosphate-buffered saline (0.1 ml at pH 8.2). N-acetyl-LTE4 was measured in each fraction by using a monoclonal antibody directed against LTC4, which cross-reacted with N-acetyl-LTE4. […]

Oxytocin
effect on carrageenan induced paw edema ([1]; 1.0 μg/kg i.c.v., p=0.13): did not decrease the paw edema
effect on carrageenan induced edema ([1]; 1.0 μg/kg s.c.): No effect
effect on carrageenan induced edema ([1]; 10 μg/kg s.c.): No effect
effect on carrageenan induced edema ([1]; 100 μg/kg s.c., 4-10 hours after the injection): reduced the edema significantly
carrageenan induced edema, percentage increase from pre-treatment values in hindpaw volume ([1]; 1 hour after the injection, saline controls 43±11%): 21±16%
carrageenan induced edema, percentage increase from pre-treatment values in hindpaw volume ([1]; 2 hours after the injection, saline controls 61±22%): 30±17%
carrageenan induced edema, percentage increase from pre-treatment values in hindpaw volume ([1]; 3 hours after the injection, saline controls 79±21%): 41 ±16%
hindpaw volume compared to controls ([1]; oxytocin 1000 μg/kg s.c. with oxytocin antagonist 1000 μg/kg s.c. given 30 minutes before, 1-10 hours after carrageenan): significant reduction of the hindpaw volume
hindpaw volume compared to controls ([1]; oxytocin 1000 μg/kg s.c. with oxytocin antagonist 1000 μg/kg s.c., at 24 hours): significant difference was gone
biliary excretion of N-acetyl-LTE4 (N-acetyl-LTE4; early response 0-1 h after OVA challenge, control 6.9±1.8): 4.3 ± 2.1 pmol/h
biliary excretion of N-acetyl-LTE4 (N-acetyl-LTE4; late response 5-6 h after OVA challenge, control 5.2±0.9): 2.6 ± 0.8 pmol/h
levels of N-acetyl-LTE4 in oxytocin-treated vs control groups (N-acetyl-LTE4; before OVA challenge): almost identical
